Measured values: ChEMBL document CHEMBL4507281, “Data for DCP probe BI-4394” (2021)

Columns and labels:
[1] = target: Receptor-interacting serine/threonine-protein kinase 2 (Homo sapiens) (UniProt O43353); settings: Compound concentration 100.0 nM
[2] = target: Serine/threonine-protein kinase TBK1 (Homo sapiens) (UniProt Q9UHD2); settings: Compound concentration 100.0 nM
[3] = target: Myosin light chain kinase 2, skeletal/cardiac muscle (Homo sapiens) (UniProt Q9H1R3); settings: Compound concentration 100.0 nM
[4] = system: Epidermal growth factor receptor (Homo sapiens), P00533 [G719C]; settings: Compound concentration 100.0 nM
[5] = system: Receptor-type tyrosine-protein kinase FLT3 (Homo sapiens), P36888 [K663Q]; settings: Compound concentration 100.0 nM
[6] = target: Discoidin domain-containing receptor 2 (Homo sapiens) (UniProt Q16832); settings: Compound concentration 100.0 nM
[7] = target: Proto-oncogene tyrosine-protein kinase Src (Homo sapiens) (UniProt P12931); settings: Compound concentration 100.0 nM
[8] = target: Serine/threonine-protein kinase D2 (Homo sapiens) (UniProt Q9BZL6); settings: Compound concentration 100.0 nM
[9] = target: Serine/threonine-protein kinase N1 (Homo sapiens) (UniProt Q16512); settings: Compound concentration 100.0 nM
[10] = target: Serine/threonine-protein kinase ULK2 (Homo sapiens) (UniProt Q8IYT8); settings: Compound concentration 100.0 nM
[11] = target: Mitogen-activated protein kinase 10 (Homo sapiens) (UniProt P53779); settings: Compound concentration 100.0 nM
[12] = target: Tyrosine-protein kinase ABL1 (Homo sapiens) (UniProt P00519); settings: Compound concentration 100.0 nM
[13] = system: Proto-oncogene tyrosine-protein kinase receptor Ret (Homo sapiens), P07949 [M918T]; settings: Compound concentration 100.0 nM
[14] = target: cGMP-dependent protein kinase 1 (Homo sapiens) (UniProt Q13976); settings: Compound concentration 100.0 nM
[15] = target: Casein kinase I isoform gamma-2 (Homo sapiens) (UniProt P78368); settings: Compound concentration 100.0 nM
[16] = target: Delta-type opioid receptor (Homo sapiens) (UniProt P41143); settings: Compound concentration 10.0 uM
[17] = target: Vascular endothelial growth factor receptor 3 (Homo sapiens) (UniProt P35916); settings: Compound concentration 100.0 nM
[18] = target: NUAK family SNF1-like kinase 2 (Homo sapiens) (UniProt Q9H093); settings: Compound concentration 100.0 nM
[19] = target: Mitogen-activated protein kinase kinase kinase 11 (Homo sapiens) (UniProt Q16584); settings: Compound concentration 100.0 nM
[20] = target: Ephrin type-A receptor 7 (Homo sapiens) (UniProt Q15375); settings: Compound concentration 100.0 nM
[21] = target: Mitogen-activated protein kinase 6 (Homo sapiens) (UniProt Q16659); settings: Compound concentration 100.0 nM
[22] = target: Ribosomal protein S6 kinase alpha-3 (Homo sapiens) (UniProt P51812); settings: Compound concentration 100.0 nM
[23] = target: Inhibitor of nuclear factor kappa-B kinase subunit epsilon (Homo sapiens) (UniProt Q14164); settings: Compound concentration 100.0 nM
[24] = target: Tyrosine-protein kinase Blk (Homo sapiens) (UniProt P51451); settings: Compound concentration 100.0 nM
[25] = target: Serine/threonine-protein kinase pim-1 (Homo sapiens) (UniProt P11309); settings: Compound concentration 100.0 nM
[26] = target: Mitotic checkpoint serine/threonine-protein kinase BUB1 (Homo sapiens) (UniProt O43683); settings: Compound concentration 100.0 nM
[27] = target: Mitogen-activated protein kinase kinase kinase 6 (Homo sapiens) (UniProt O95382); settings: Compound concentration 100.0 nM
[28] = target: Mitogen-activated protein kinase 8 (Homo sapiens) (UniProt P45983); settings: Compound concentration 100.0 nM
[29] = target: Serine/threonine-protein kinase RIO3 (Homo sapiens) (UniProt O14730); settings: Compound concentration 100.0 nM
[30] = target: Non-receptor tyrosine-protein kinase TYK2 (Homo sapiens) (UniProt P29597); settings: Compound concentration 100.0 nM
[31] = target: Homeodomain-interacting protein kinase 1 (Homo sapiens) (UniProt Q86Z02); settings: Compound concentration 100.0 nM
[32] = target: cGMP-dependent protein kinase 2 (Homo sapiens) (UniProt Q13237); settings: Compound concentration 100.0 nM
[33] = target: T1, Tyrosine-protein kinase ZAP-70 (Homo sapiens) (UniProt P43403); settings: Compound concentration 100.0 nM
T1 sequence (whole entry): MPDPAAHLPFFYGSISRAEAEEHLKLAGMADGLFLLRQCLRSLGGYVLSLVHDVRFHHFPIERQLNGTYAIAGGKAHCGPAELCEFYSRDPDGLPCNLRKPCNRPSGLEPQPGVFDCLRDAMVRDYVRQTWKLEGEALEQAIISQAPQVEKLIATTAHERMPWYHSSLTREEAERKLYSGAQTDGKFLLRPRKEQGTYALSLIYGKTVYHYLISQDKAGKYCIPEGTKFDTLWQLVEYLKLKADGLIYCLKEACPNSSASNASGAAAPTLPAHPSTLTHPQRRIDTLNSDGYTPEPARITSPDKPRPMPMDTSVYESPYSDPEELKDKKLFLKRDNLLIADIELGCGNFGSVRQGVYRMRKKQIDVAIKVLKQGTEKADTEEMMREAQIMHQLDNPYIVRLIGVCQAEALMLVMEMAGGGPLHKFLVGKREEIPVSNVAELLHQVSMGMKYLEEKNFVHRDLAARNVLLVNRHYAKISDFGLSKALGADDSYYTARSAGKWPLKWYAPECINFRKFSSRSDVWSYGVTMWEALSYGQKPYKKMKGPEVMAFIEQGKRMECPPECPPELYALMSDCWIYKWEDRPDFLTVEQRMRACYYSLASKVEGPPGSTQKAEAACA

[34] = target: Serine/threonine-protein kinase SIK1 (Homo sapiens) (UniProt P57059); settings: Compound concentration 100.0 nM
[35] = system: Receptor-type tyrosine-protein kinase FLT3 (Homo sapiens), P36888 [R834Q]; settings: Compound concentration 100.0 nM
[36] = target: Mitogen-activated protein kinase kinase kinase 2 (Homo sapiens) (UniProt Q9Y2U5); settings: Compound concentration 100.0 nM
Sequence of Mitogen-activated protein kinase kinase kinase 2 (Homo sapiens) (Q9Y2U5 whole entry): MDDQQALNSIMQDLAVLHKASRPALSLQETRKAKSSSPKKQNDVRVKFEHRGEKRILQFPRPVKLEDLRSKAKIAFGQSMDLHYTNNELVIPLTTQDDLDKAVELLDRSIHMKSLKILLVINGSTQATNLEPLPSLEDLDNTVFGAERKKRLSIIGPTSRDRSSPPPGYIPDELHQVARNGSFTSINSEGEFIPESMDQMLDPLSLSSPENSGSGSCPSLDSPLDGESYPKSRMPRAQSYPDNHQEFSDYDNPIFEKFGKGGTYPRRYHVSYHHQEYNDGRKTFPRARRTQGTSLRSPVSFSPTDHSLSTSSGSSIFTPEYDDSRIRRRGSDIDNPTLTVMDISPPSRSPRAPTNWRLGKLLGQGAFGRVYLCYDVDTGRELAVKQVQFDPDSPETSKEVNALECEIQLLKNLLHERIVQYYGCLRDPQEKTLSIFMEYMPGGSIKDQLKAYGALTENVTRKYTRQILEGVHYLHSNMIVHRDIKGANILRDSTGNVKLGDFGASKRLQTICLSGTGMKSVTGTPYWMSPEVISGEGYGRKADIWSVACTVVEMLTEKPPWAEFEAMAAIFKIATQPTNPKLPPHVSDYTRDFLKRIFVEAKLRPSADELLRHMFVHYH

Sequence of Ephrin type-A receptor 7 (Homo sapiens) (Q15375 28-998 limits assumed): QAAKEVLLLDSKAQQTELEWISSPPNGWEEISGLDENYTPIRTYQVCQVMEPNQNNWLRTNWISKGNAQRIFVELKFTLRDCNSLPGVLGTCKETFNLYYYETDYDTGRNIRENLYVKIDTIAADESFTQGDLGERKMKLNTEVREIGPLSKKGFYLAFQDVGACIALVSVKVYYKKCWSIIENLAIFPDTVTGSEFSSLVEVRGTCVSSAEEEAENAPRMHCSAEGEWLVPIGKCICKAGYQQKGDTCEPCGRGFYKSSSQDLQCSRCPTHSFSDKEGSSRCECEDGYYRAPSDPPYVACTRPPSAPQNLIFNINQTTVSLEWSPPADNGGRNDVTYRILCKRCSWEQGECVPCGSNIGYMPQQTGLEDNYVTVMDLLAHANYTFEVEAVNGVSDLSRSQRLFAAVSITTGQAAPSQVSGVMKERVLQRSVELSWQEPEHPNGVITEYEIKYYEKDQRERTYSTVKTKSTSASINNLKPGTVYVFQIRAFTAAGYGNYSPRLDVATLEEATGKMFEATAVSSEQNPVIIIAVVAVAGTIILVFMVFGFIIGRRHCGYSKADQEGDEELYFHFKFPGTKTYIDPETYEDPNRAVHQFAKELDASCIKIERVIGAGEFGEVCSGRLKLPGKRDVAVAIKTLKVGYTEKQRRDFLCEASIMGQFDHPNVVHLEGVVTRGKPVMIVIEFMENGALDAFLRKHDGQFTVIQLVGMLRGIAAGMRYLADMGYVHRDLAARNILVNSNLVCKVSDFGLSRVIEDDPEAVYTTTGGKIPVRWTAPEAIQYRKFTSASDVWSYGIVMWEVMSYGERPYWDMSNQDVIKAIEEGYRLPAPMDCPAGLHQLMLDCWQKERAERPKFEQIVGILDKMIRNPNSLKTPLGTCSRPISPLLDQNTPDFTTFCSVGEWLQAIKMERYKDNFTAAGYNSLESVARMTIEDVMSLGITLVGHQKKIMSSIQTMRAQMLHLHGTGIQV
Sequence of Mitogen-activated protein kinase 6 (Homo sapiens) (Q16659 whole entry): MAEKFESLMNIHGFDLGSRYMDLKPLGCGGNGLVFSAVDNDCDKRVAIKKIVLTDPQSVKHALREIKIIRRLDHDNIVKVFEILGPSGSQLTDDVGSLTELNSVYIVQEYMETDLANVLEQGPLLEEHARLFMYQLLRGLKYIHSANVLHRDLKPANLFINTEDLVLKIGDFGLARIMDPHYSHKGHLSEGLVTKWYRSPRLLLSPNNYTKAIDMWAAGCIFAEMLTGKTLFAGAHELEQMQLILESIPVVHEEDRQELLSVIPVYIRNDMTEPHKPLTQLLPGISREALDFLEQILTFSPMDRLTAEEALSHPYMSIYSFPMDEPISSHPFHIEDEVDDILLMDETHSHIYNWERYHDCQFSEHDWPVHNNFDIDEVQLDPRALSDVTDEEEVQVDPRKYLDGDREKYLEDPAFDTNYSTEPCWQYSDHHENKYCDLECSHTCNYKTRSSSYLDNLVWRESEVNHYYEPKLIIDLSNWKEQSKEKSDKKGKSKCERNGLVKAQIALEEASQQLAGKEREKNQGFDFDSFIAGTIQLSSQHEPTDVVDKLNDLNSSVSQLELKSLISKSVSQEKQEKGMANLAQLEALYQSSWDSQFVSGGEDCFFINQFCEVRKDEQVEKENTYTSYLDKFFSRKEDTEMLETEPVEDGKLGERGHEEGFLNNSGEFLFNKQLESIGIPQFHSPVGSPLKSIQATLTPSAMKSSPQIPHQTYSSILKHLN
Sequence of Serine/threonine-protein kinase N1 (Homo sapiens) (Q16512 2-942 limits assumed): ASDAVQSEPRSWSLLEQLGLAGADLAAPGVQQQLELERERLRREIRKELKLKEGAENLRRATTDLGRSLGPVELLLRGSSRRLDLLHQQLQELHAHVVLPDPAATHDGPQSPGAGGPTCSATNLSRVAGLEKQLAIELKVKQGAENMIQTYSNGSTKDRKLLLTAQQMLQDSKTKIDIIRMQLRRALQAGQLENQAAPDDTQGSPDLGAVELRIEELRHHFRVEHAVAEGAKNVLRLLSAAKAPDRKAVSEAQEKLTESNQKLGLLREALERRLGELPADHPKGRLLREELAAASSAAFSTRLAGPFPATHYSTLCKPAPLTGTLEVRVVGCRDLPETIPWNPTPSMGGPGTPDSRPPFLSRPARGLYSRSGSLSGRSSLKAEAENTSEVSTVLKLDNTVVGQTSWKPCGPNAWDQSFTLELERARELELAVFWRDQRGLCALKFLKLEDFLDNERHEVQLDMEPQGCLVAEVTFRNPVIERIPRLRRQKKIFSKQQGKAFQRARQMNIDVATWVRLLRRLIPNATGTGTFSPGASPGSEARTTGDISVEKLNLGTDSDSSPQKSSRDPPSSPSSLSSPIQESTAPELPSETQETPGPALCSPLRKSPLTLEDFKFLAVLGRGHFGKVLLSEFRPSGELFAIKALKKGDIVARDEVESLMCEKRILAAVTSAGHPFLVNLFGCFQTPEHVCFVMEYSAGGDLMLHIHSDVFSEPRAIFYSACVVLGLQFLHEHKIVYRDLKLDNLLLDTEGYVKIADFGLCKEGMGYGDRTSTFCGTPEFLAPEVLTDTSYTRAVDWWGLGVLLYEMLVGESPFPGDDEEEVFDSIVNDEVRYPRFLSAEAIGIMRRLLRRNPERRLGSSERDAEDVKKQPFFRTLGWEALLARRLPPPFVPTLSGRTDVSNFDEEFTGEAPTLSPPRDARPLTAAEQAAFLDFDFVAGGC
Sequence of Serine/threonine-protein kinase D2 (Homo sapiens) (Q9BZL6 whole entry): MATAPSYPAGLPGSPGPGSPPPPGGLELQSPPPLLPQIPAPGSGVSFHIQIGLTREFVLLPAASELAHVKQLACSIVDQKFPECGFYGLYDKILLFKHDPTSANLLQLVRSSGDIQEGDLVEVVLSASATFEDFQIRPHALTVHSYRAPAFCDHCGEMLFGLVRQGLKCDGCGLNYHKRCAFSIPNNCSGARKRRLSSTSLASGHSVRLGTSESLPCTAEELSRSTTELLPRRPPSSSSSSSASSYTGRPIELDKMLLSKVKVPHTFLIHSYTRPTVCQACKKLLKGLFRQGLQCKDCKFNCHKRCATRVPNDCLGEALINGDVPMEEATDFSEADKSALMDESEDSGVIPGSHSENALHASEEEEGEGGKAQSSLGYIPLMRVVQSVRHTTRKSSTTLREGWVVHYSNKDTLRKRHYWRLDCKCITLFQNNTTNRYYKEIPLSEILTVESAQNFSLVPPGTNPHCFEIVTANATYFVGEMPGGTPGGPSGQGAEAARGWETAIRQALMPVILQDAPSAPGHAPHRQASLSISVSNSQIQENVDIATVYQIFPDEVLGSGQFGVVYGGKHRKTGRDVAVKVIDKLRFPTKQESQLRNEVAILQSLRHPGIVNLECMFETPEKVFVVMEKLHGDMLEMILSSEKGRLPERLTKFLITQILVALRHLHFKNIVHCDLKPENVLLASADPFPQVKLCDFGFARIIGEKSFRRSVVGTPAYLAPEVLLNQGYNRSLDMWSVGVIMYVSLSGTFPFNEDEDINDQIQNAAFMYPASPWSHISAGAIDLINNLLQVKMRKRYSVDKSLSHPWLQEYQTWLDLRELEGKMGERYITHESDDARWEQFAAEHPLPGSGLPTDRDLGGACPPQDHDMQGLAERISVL
Sequence of Mitogen-activated protein kinase kinase kinase 11 (Homo sapiens) (Q16584 whole entry, looked up): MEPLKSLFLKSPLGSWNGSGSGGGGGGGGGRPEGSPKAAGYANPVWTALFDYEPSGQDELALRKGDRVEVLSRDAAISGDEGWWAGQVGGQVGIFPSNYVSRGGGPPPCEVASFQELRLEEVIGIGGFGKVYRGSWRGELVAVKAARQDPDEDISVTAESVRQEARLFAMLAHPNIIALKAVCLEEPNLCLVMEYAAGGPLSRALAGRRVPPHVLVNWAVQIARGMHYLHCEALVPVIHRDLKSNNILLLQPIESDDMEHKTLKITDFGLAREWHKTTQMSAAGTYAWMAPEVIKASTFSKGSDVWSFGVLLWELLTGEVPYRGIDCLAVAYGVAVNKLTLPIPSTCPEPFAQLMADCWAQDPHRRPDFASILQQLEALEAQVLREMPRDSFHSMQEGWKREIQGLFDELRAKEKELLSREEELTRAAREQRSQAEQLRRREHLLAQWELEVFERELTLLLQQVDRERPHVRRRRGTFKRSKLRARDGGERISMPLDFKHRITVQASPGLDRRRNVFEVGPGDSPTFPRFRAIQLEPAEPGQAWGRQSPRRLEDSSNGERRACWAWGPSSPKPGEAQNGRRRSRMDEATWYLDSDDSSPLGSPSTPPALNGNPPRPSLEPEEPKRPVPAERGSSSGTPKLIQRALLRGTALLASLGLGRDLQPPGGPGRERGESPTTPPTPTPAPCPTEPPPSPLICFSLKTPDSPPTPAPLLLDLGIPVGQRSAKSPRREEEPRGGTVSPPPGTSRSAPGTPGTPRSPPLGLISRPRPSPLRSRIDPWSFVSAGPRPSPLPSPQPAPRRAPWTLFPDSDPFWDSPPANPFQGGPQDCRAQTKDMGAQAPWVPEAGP

| Structure (SMILES) | residual activity [1] | residual activity [2] | residual activity [3] | residual activity [4] | residual activity [5] | residual activity [6] | residual activity [7] | residual activity [8] | residual activity [9] | residual activity [10] | residual activity [11] | residual activity [12] | residual activity [13] | residual activity [14] | residual activity [15] | inhibition [16] | residual activity [17] | residual activity [18] | residual activity [19] | residual activity [20] | also measured |
| --- | --- | --- | --- | --- | --- | --- | --- | --- | --- | --- | --- | --- | --- | --- | --- | --- | --- | --- | --- | --- | --- |
| CCOC(=O)c1cc2cc(-c3cc(C(=O)NCc4ccc(C(=O)O)cc4)nn3C)ccc2[nH]1 [BI 4394] | 100% | 84% | 89% | 100% | 90% | 76% | 93% | 100% | 100% | 78% | 100% | 94% | 100% | 91% | 79% | -9.42% | 97% | 85% | 88% | 97% | residual activity [21]: 97%; residual activity [22]: 80%; residual activity [23]: 66%; residual activity [24]: 99%; residual activity [25]: 95%; residual activity [26]: 100%; residual activity [27]: 79%; residual activity [28]: 96%; residual activity [29]: 100%; residual activity [30]: 91%; residual activity [31]: 91%; residual activity [32]: 93%; residual activity [33]: 98%; residual activity [34]: 97%; residual activity [35]: 78%; residual activity [36]: 100% |
| Cn1nc(C(=O)NCc2ccc(C(=O)O)cc2)cc1-c1ccc2[nH]ccc2c1 [BI 4395] | 100% | 77% | 83% | 76% | 86% | 75% | 100% | 100% | 90% | 98% | 76% | 62% | 49% | 100% | 90% | 0.8% | 43% | 87% | 87% | 82% | residual activity [21]: 100%; residual activity [22]: 70%; residual activity [23]: 100%; residual activity [24]: 100%; residual activity [25]: 91%; residual activity [26]: 83%; residual activity [27]: 88%; residual activity [28]: 88%; residual activity [29]: 83%; residual activity [30]: 94%; residual activity [31]: 85%; residual activity [32]: 78%; residual activity [33]: 82%; residual activity [34]: 100%; residual activity [35]: 63%; residual activity [36]: 75% |
